Reference: patent US20250360113A1, “ADMINISTRATION OF DHB TO INCREASE BENEFIT OF LOSING WEIGHT OF INTERMITTENT FASTING” (NANJING NUTRABUILDING BIO-TECH CO., LTD., priority 2023, published 2025)
Entries after “also recorded” stand apart in the source; their conditions may differ.

Assays:
[1] = Body weight and body composition of HFD obese mice given DHB with or without EODF; format: in vivo, C57BL/6 male mice
Protocol: 50 C57BL/6 male mice aged about 8 weeks, are randomly assigned to five study groups (GA, GB1, GB2, GB3, GB4) of ten mice each (one cage, n=5 per condition). Mice were maintained in a pathogen free condition under a strict 12 h light/dark cycle (0600/1800 h) with 12-15 cycles/hour of air change. Mice were provided with access to respective feed and water ad libitum as per experimental conditions. Mice were housed under controlled laboratory conditions of temperature and humidity at 23±2° C. and 50±10% RH, respectively.
Each study group consisted of ten animals, and treatment details of the individual study groups are given below: • Group A (GA, NC): Normal mice, maintained on normal diet (standard chow, 12% calories from fat; 23% calories from protein and 65% calories from carbohydrates) for 8 weeks, receiving neither EODF nor DHB treatment. • Group B1 (GB1): Obese mice, maintained on high fat diet (HFD, 60% calories from fat, 20% calories from protein, 20% calories from carbohydrate) for 8 weeks, receiving neither EODF nor DHB treatment. • Group B2 (GB2): Obese mice, maintained on HFD for 8 weeks, receiving only EODF and no DHB treatment. • Group B3 (GB3): Obese mice, maintained on HFD for 8 weeks, receiving only DHB treatment and no EODF. • Group B4 (GB4): Obese mice, maintained on HFD for 8 weeks, receiving DHB treatment and EODF combination.
The total experimental time is 19 weeks, including two periods: an elevent-week induction period and a subsequent eight-week treatment period.
HFD fed male mice in groups at 8 weeks of age were randomly assigned into either ad libitum, or EODF groups on a per cage basis. All cage bedding was changed to paper bedding for the duration of the model. Mice in the EODF group had total deprivation of food and ad libitum access to water from 1200 h-1200 h on alternate days with ad libitum food and water access. EODF cages were changed upon induction of fasting. Ad libitum control mice cages were changed every other day with fresh food provided.
DHB was administered daily via intragastric injection (i.g.) according to a level of 70 mg/kg body weight. Mice not receiving DHB were given orally with ultrapure water.
Each mouse's body weight is measured weekly during the study at 1200 h. Each animal's body composition was measured and recorded before the treatment and weekly during the study at 1200 h by Nuclear Magnetic Resonance Body Composition Analyzer in accordance with manufacturer's instruction. After sacrifice, subcutaneous fat and para-renal fat were weighed.

[2] = mice, including mice lacking the intestinal bacteria needed to break down BBR; cited from earlier work
[3] = DHB 70 mg/kg i.g. daily + EODF combination vs EODF only

## COc1ccc2c(c1OC)CN1CCc3cc4c(cc3C1=C2)OCO4 [DHB, Dihydroberberine]
[1]; [3]
  body fat: reducing
  body weight: reducing; also recorded: greater effects on weight loss
  para-renal fat: reducing
  subcutaneous fat: reducing
[1]; DHB 70 mg/kg i.g. daily, 8 weeks, with or without EODF, vs same HFD with and without EODF, no DHB, FIGS. 1-4
  body composition: greater reduction in body composition
[2]
  absorption compared with BBR: better absorbed
